This passage reports pest or weed control and mortality results from patent US20220274947A1, “NOVEL HETEROARYL-TRIAZOLE COMPOUNDS AS PESTICIDES” (Bayer Aktiengesellschaft, priority 2019, published 2022).

Common to all, as to format: in vivo
The subject of test [1] is Rhipicephalus microplus. Description: Rhipicephalus (Boophilus) microplus injection test (BOOPMI Inj). To be noted: 168 h, injection into adult engorged female ticks, egg deposition after 7 days, read-out: activity (efficacy: 100% means all eggs are infertile); for pest or weed control at 0.004 mg: application rate 4 μg/tick; for pest or weed control at 0.02 mg: application rate 20 μg/tick. In a few lines: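 Five engorged adult female R. microplus ticks injected into the abdomen with 1 μL of compound diluted in DMSO, then kept in a climate chamber. Fertile egg deposition checked after 7 days; eggs without visible fertility held until hatching at about 42 days. Efficacy: 100% = all eggs infertile, 0% = all fertile.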

The subject of test [2] is Rhipicephalus microplus. Briefly: Rhipicephalus (Boophilus) microplus in-vitro contact test, larval cattle tick, strain Parkhurst (BOOPMI Cont). To be noted: application rate 5 μg/cm^2 (=500 g/ha), tick larvae, after 48 hours, read-out: activity (efficacy: 100% means all larvae are dead or moribund). In a few lines: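 Acetone solutions dried onto glass tube walls (900 ppm giving 5 μg/cm^2); 20-50 pyrethroid-resistant Parkhurst larvae added per tube and held 48 h at 27° C., 85% relative humidity. Efficacy scored by negative geotaxis as % dead or moribund larvae.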

In test [3] the test system is Diabrotica balteata. Briefly: Diabrotica balteata spray test. Conditions: 168 h, wheat seeds, larvae, after 7 days, read-out: activity (efficacy: 100% means all seedlings have grown up like in the untreated, uninfected control); for pest or weed control at 32 µg/disc, 100 g/ha: application rate 100 g/ha (=32 μg/well). In a few lines:
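Wheat seedlings, germinated 1 day on agar, were sprayed with compound in acetone/DMF diluted in water containing emulsifier, then infested with 10-20 Diabrotica balteata larvae. After 7 days efficacy in % was scored: 100% means seedlings grew like the untreated, uninfected control; 0% means none grew.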

For test [4], the system named is Ctenocephalides felis. Description: Ctenocephalides felis in-vitro contact test, adult cat flea (CTECFE Cont). Conditions: application rate 5 μg/cm^2 (=500 g/ha), adult cat fleas, after 48 hours, read-out: activity (efficacy: 100% means all fleas are dead or moribund). In a few lines:
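Acetone solutions coated on glass tube inner walls (900 ppm giving 5 μg/cm^2), then 5-10 adult fleas added and held 48 h at room temperature. Fleas unable to escape a 45-50° C. heating plate within 5 min scored dead or moribund; efficacy = % dead/moribund.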

Test [5] relates to Nezara viridula. Briefly: Nezara viridula spray test. Conditions: in Hordeum vulgare, 96 h, barley plants, larvae, after 4 days; for mortality at 100 g/ha: application rate 100 g/ha. In a few lines: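 Barley plants infested with N. viridula larvae were sprayed with compound in acetone/DMF diluted with water containing 1000 ppm alkylarylpolyglycol ether emulsifier. Mortality (%) was scored after 4 days; 100% means all bugs killed, 0% none.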

The subject of test [6] is Spodoptera frugiperda. Description: Spodoptera frugiperda spray test. To be noted: in Zea mays, 168 h, read-out: activity (mortality). In a few lines:
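Maize leaf sections were sprayed with compound formulated in acetone/DMF and diluted in water containing 1000 ppm emulsifier. Dried leaves were infested with fall armyworm larvae, and percent mortality was scored after 7 days.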

In test [7] the test system is Rhipicephalus sanguineus. Description: Rhipicephalus sanguineus in-vitro contact test, adult brown dog ticks (RHIPSA Cont). To be noted: 48 h, after 48 hours, read-out: activity (efficacy: 100% means all ticks are dead or moribund); for pest or weed control at 1 µg/cm2, 100 g/ha: application rate 1 μg/cm^2 (=100 g/ha); for pest or weed control at 5 µg/cm2, 500 g/ha: application rate 5 μg/cm^2 (=500 g/ha). In a few lines: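 Mortality of adult R. sanguineus was judged 48 h after contact with acetone-applied residues on glass tube walls. Ticks that stayed immotile or moved without coordination when heated to 45–50 °C (max 5 min) counted as dead or moribund.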

The term mortality denotes the share of the test organisms that died. On to `Cc1nc([C@H](C)NC(=O)c2cc(Cl)nc(C(F)(F)F)c2)n(-c2ccc(C#N)cn2)n1` [II-62], for which, in test [1], the pest or weed control at 0.004 mg was 100% and the pest or weed control at 0.02 mg is 100%. Further, the pest or weed control at 5 µg/cm2 in test [2] amounted to 100%. Moreover, the pest or weed control at 32 µg/disc, 100 g/ha in test [3] amounted to 100%. Also, the pest or weed control at 5 µg/cm2 in test [4] is 100%. Besides, the mortality at 100 g/ha in test [5] was determined as 100%. For the same compound, the mortality at 100 g/ha in test [6] turned out to be 100%. Besides, in test [7], the pest or weed control at 1 µg/cm2, 100 g/ha was 100% and the pest or weed control at 5 µg/cm2, 500 g/ha was found to be 100%.

Consider `Cc1nc([C@H](C)NC(=O)c2cc(Cl)cc(C(F)F)c2)n(-c2ccc(C#N)cn2)n1` [II-65], for which the pest or weed control at 0.004 mg in test [1] amounted to 100%. Besides, the pest or weed control at 0.02 mg in test [1] turned out to be 100%. For the same compound, the pest or weed control at 5 µg/cm2 in test [2] and in test [4] was 100% in each case. Further, in test [3], the pest or weed control at 32 µg/disc, 100 g/ha was found to be 80%. Also, the mortality at 100 g/ha in test [5] and in test [6] was 100% each time. The pest or weed control at 1 µg/cm2, 100 g/ha in test [7] turned out to be 100%. Also, the pest or weed control at 5 µg/cm2, 500 g/ha in test [7] was 100%.

With `C[C@H](NC(=O)c1cc(C(F)(F)F)cc(C(F)(F)F)c1)c1ncnn1-c1ccc(C(=O)N(C)CC2CC2)cn1` [II-73], in test [1], the pest or weed control at 0.004 mg was determined as 100% and the pest or weed control at 0.02 mg turned out to be 100%. Besides, in test [2], the pest or weed control at 5 µg/cm2 amounted to 100%. Besides, the pest or weed control at 32 µg/disc, 100 g/ha in test [3] amounted to 100%. Besides, in test [3] (application rate 500 g/ha (=160 μg/well)), the pest or weed control at 160 µg/disc, 500 g/ha was 100%. Also, the pest or weed control at 5 µg/cm2 in test [4] came out at 100%. In test [5], this compound registered a mortality at 100 g/ha of 100%. In test [5] (application rate 500 g/ha), the mortality at 500 g/ha turned out to be 100%. In addition, in test [6], the mortality at 100 g/ha turned out to be 100% and the mortality at 500 g/ha stood at 100%. Also, in test [7], the pest or weed control at 1 µg/cm2, 100 g/ha amounted to 100% and the pest or weed control at 5 µg/cm2, 500 g/ha turned out to be 100%.

Regarding `C[C@H](NC(=O)c1cc(OC(F)F)cc(OC(F)F)c1)c1ncnn1-c1ccc(C#N)cn1` [II-77], in test [1], the pest or weed control at 0.004 mg came to 80%. Moreover, the results for the pest or weed control at 5 µg/cm2 in test [2] and in test [4] were 90% and 100%, respectively. For the same compound, the pest or weed control at 32 µg/disc, 100 g/ha in test [3] worked out at 100%. The mortality at 100 g/ha in test [5] and in test [6] was 100% each time. In addition, the pest or weed control at 5 µg/cm2, 500 g/ha in test [7] came out at 100%.

For `C[C@H](NC(=O)c1cc(Cl)cc(C(F)(F)F)c1)c1ncnn1-c1ccc(N(C)C(=O)C2CC2)cn1` [II-79], in test [1], the pest or weed control at 0.004 mg turned out to be 100%. In addition, the pest or weed control at 5 µg/cm2 in test [2] and in test [4] was 100% in each case. Also, the pest or weed control at 32 µg/disc, 100 g/ha in test [3] turned out to be 100%. Besides, the mortality at 100 g/ha in test [5] and in test [6] was 100% throughout. The pest or weed control at 1 µg/cm2, 100 g/ha in test [7] is 80%. Also, the pest or weed control at 5 µg/cm2, 500 g/ha in test [7] worked out at 80%.

For the compound `CCN(C)C(=O)c1ccc(-n2nc(C)nc2[C@H](C)NC(=O)c2cc(C(F)(F)F)cc(C(F)(F)F)c2)nc1` [II-97], in test [1], the pest or weed control at 0.004 mg was found to be 100%. Further, the pest or weed control at 5 µg/cm2 in test [2] and in test [4] was 100% in each case. The pest or weed control at 32 µg/disc, 100 g/ha in test [3] was determined as 100%. Also, the mortality at 100 g/ha in test [5] and in test [6] was 100% each time. In addition, the pest or weed control at 1 µg/cm2, 100 g/ha in test [7] stood at 100%. Also, in test [7], the pest or weed control at 5 µg/cm2, 500 g/ha stood at 100%.

As to `C[C@H](NC(=O)c1cc(C(F)F)cc(C(F)F)c1)c1ncnn1-c1ccc(C#N)cn1` [II-101], the pest or weed control at 0.004 mg in test [1] turned out to be 100%. Further, the pest or weed control at 5 µg/cm2 in test [2] and in test [4] was 100% each time. The pest or weed control at 32 µg/disc, 100 g/ha in test [3] is 100%. Moreover, the mortality at 100 g/ha in test [5] and in test [6] was 100% in each case. In addition, the pest or weed control at 1 µg/cm2, 100 g/ha in test [7] was determined as 100%. Moreover, in test [7], the pest or weed control at 5 µg/cm2, 500 g/ha came to 100%.

As to `C[C@H](NC(=O)c1cc(OC(F)(F)F)cc(C(F)F)c1)c1ncnn1-c1ccc(C#N)cn1` [II-111], the pest or weed control at 0.004 mg in test [1] is 100%. In addition, the pest or weed control at 5 µg/cm2 in test [2] and in test [4] was 100% throughout. In addition, the pest or weed control at 32 µg/disc, 100 g/ha in test [3] turned out to be 100%. The mortality at 100 g/ha in test [5] and in test [6] was 100% in each case. In test [7], the pest or weed control at 1 µg/cm2, 100 g/ha is 100%. In test [7], the pest or weed control at 5 µg/cm2, 500 g/ha amounted to 100%.

With `C[C@H](NC(=O)c1cc(OC(F)F)cc(C(F)F)c1)c1ncnn1-c1ccc(C#N)cn1` [II-116], in test [1], the pest or weed control at 0.004 mg is 100%. Besides, the pest or weed control at 5 µg/cm2 in test [2] and in test [4] was 100% throughout. For the same compound, the pest or weed control at 32 µg/disc, 100 g/ha in test [3] is 100%. Moreover, the mortality at 100 g/ha in test [5] and in test [6] was 100% in each case. Besides, the pest or weed control at 1 µg/cm2, 100 g/ha in test [7] came out at 100%. Further, in test [7], the pest or weed control at 5 µg/cm2, 500 g/ha came out at 100%.

With `Cc1nc([C@H](C)NC(=O)c2cc(OC(F)(F)F)cc(C(F)F)c2)n(-c2ccc(C#N)cn2)n1` [II-117], the pest or weed control at 0.004 mg in test [1] was determined as 100%. Moreover, the pest or weed control at 5 µg/cm2 in test [2] and in test [4] was 100% in each case. Besides, the pest or weed control at 32 µg/disc, 100 g/ha in test [3] came to 100%. For the same compound, the mortality at 100 g/ha in test [5] and in test [6] was 100% each time. In test [7], the pest or weed control at 1 µg/cm2, 100 g/ha turned out to be 100%. In addition, the pest or weed control at 5 µg/cm2, 500 g/ha in test [7] worked out at 100%.
